Measured values from ChEMBL document CHEMBL1144238, “Identification and SAR around N-{2-[4-(2,3-dihydro-benzo[1,4]dioxin-2-ylmethyl)-[1,4]diazepan-1-yl]-ethyl}-2-phenoxy-nicotinamide, a selective alpha2C adrenergic receptor antagonist” (Bioorg Med Chem Lett, 2008).
One block for each compound: values may come before it.

What was measured:
[1] = target: T1, Alpha-2C adrenergic receptor (Homo sapiens, UniProt P18825); experiment: Binding affinity at human recombinant adrenergic Alpha-2C receptor expressed in CHO cells by radioligand binding assay; type: cell-based
T1 sequence (P18825 whole entry): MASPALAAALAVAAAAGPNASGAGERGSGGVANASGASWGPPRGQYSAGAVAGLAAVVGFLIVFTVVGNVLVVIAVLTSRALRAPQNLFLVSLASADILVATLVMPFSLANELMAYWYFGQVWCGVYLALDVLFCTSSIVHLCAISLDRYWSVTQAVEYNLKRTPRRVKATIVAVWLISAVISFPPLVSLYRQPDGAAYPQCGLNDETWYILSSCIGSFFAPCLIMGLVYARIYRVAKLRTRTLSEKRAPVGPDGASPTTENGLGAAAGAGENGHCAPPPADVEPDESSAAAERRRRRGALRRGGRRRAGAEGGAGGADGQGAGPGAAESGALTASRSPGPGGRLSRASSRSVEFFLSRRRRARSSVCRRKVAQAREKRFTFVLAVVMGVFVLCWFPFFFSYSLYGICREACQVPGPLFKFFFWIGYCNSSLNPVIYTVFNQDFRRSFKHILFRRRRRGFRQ

[2] = target: T2, Alpha-2B adrenergic receptor (Homo sapiens, UniProt P18089); experiment: Binding affinity at human recombinant adrenergic alpha2B receptor expressed in CHO cells by radioligand binding assay; type: cell-based
T2 sequence (P18089 whole entry): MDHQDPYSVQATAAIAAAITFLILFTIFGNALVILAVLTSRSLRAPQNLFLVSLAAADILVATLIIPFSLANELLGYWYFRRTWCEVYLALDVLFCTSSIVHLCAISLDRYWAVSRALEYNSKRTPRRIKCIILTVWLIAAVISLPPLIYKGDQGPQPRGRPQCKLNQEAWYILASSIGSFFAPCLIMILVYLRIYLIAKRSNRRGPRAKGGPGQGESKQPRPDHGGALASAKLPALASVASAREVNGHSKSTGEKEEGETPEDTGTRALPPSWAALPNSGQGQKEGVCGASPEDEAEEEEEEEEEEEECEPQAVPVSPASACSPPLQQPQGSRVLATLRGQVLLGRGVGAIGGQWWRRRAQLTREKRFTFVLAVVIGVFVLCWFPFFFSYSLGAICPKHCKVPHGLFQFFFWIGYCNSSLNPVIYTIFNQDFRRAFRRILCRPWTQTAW

[3] = target: T3, Alpha-2A adrenergic receptor (Homo sapiens, UniProt P08913); experiment: Binding affinity at human recombinant adrenergic alpha2A receptor expressed in CHO cells by radioligand binding assay; type: cell-based
T3 sequence (P08913 whole entry): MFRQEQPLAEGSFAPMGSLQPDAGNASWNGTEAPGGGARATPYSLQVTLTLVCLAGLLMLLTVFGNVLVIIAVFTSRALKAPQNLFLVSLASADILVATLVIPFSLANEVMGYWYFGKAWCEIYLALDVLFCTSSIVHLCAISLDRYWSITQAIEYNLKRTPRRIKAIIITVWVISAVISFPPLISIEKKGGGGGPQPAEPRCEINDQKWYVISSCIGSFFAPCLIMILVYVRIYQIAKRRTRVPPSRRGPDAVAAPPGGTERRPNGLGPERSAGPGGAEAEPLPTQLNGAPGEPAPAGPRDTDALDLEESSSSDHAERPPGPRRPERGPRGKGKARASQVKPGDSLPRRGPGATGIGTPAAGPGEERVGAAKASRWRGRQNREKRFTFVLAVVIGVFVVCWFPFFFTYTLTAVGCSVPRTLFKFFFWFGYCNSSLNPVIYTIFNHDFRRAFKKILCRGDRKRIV

[4] = target: T1, Alpha-2C adrenergic receptor; experiment: Antagonist activity at human recombinant adrenergic Alpha-2C receptor expressed in CHO cells assessed as inhibition of NE-induced calcium mobilization by FLIPR; type: functional, cell-based
[5] = target: T2, Alpha-2B adrenergic receptor; experiment: Antagonist activity at human recombinant adrenergic alpha2B receptor expressed in CHO cells assessed as inhibition of NE-induced calcium mobilization by FLIPR; type: functional, cell-based
[6] = target: T3, Alpha-2A adrenergic receptor; experiment: Antagonist activity at human recombinant adrenergic alpha2A receptor expressed in CHO cells assessed as inhibition of NE-induced calcium mobilization by FLIPR; type: functional, cell-based
[7] = species: Homo sapiens; experiment: Selectivity for human recombinant adrenergic Alpha-2C receptor over human recombinant adrenergic alpha2B receptor by radioligand binding assay
[8] = species: Homo sapiens; experiment: Selectivity for human recombinant adrenergic Alpha-2C receptor over human recombinant adrenergic alpha2A receptor by radioligand binding assay
[9] = species: Homo sapiens; experiment: Selectivity human recombinant adrenergic Alpha-2C receptor over human recombinant adrenergic alpha2B receptor by FLIPR
[10] = species: Homo sapiens; experiment: Selectivity human recombinant adrenergic Alpha-2C receptor over human recombinant adrenergic alpha2A receptor by FLIPR
[11] = target: Alpha-2C adrenergic receptor (Rattus norvegicus) (UniProt P22086); experiment: Binding affinity to rat adrenergic Alpha-2C receptor by radioligand binding assay
[12] = target: Alpha-2A adrenergic receptor (Rattus norvegicus) (UniProt P22909); experiment: Binding affinity to rat adrenergic alpha2A receptor by radioligand binding assay
Alpha-2A adrenergic receptor (Rattus norvegicus), sequence (P22909 whole entry): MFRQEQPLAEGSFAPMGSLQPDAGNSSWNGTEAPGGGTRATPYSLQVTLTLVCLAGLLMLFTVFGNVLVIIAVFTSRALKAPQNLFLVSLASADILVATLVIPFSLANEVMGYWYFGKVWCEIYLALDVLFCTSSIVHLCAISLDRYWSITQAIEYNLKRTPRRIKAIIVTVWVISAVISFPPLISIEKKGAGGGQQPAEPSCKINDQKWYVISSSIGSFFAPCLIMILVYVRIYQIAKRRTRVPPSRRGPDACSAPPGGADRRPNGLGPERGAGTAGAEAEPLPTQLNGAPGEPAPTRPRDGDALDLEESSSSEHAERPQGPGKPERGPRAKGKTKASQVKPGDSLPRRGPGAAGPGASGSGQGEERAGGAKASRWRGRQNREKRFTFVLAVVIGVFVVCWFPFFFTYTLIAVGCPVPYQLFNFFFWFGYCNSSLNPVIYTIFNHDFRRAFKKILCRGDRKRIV

[13] = target: Alpha-2B adrenergic receptor (Rattus norvegicus) (UniProt P19328); experiment: Binding affinity to rat adrenergic alpha2B receptor by radioligand binding assay
[14] = target: Alpha-1A adrenergic receptor (Homo sapiens) (UniProt P35348); experiment: Binding affinity to human adrenergic alpha1A receptor
Alpha-1A adrenergic receptor (Homo sapiens), sequence (P35348 whole entry): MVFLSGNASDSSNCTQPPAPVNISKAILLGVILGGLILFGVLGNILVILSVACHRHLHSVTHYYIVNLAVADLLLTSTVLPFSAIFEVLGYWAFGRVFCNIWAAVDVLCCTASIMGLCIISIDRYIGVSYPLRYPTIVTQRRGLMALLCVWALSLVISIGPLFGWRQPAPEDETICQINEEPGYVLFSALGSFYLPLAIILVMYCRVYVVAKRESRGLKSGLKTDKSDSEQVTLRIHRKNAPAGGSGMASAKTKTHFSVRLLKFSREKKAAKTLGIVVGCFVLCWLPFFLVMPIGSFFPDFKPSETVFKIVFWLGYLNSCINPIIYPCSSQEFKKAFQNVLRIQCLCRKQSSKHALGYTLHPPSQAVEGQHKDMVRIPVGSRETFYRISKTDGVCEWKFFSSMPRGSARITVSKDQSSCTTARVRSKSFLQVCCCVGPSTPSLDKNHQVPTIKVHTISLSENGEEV

[15] = target: 5-hydroxytryptamine receptor 1A (Homo sapiens) (UniProt P08908); experiment: Binding affinity to human 5HT1A receptor
[16] = target: 5-hydroxytryptamine receptor 1B (Homo sapiens) (UniProt P28222); experiment: Binding affinity to human 5HT1B receptor at 10 uM
5-hydroxytryptamine receptor 1B (Homo sapiens), sequence (P28222 whole entry): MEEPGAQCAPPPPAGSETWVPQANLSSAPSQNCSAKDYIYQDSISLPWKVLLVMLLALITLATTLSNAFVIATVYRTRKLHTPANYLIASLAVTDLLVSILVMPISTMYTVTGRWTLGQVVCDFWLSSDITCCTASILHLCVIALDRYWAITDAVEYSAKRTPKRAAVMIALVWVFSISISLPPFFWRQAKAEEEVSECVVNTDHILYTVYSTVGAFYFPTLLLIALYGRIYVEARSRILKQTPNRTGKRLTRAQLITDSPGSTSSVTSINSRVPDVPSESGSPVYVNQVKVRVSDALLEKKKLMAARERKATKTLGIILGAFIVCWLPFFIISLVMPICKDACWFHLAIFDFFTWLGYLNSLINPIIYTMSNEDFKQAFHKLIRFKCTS

[17] = target: 5-hydroxytryptamine receptor 2A (Homo sapiens) (UniProt P28223); experiment: Binding affinity to human 5HT2A receptor
[18] = target: 5-hydroxytryptamine receptor 2B (Homo sapiens) (UniProt P41595); experiment: Binding affinity to human 5HT2B receptor
[19] = target: 5-hydroxytryptamine receptor 7 (Homo sapiens) (UniProt P34969); experiment: Binding affinity to human 5HT7 receptor
5-hydroxytryptamine receptor 7 (Homo sapiens), sequence (P34969 whole entry): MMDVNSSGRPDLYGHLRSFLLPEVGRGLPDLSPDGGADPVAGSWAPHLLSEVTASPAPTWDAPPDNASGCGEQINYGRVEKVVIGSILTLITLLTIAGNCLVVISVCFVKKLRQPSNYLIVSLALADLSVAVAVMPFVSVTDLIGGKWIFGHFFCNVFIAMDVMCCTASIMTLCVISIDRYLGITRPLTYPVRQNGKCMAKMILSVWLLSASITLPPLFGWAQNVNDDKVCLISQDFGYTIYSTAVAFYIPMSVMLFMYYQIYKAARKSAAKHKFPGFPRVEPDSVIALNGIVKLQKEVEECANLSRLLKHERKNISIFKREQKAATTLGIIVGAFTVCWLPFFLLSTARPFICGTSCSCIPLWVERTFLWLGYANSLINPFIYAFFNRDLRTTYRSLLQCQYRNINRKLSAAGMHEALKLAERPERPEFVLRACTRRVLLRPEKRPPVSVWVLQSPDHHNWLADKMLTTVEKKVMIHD

[20] = target: D(2) dopamine receptor (Homo sapiens) (UniProt P14416); experiment: Binding affinity to human dopamine D2 receptor
D(2) dopamine receptor (Homo sapiens), sequence (P14416 whole entry): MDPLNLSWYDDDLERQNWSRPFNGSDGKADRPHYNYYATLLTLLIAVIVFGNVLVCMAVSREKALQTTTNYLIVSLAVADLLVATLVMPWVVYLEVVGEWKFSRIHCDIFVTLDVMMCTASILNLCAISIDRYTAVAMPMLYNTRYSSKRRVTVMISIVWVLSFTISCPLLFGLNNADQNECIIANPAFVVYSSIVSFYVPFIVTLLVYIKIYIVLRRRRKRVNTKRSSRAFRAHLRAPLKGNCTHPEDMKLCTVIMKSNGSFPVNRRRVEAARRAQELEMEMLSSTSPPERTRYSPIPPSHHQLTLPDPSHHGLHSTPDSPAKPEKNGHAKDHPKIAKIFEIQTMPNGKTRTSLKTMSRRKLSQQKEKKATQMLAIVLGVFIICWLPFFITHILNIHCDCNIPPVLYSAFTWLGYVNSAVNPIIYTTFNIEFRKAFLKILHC

[21] = target: D(3) dopamine receptor (Homo sapiens) (UniProt P35462); experiment: Binding affinity to human dopamine D3 receptor
D(3) dopamine receptor (Homo sapiens), sequence (P35462 whole entry): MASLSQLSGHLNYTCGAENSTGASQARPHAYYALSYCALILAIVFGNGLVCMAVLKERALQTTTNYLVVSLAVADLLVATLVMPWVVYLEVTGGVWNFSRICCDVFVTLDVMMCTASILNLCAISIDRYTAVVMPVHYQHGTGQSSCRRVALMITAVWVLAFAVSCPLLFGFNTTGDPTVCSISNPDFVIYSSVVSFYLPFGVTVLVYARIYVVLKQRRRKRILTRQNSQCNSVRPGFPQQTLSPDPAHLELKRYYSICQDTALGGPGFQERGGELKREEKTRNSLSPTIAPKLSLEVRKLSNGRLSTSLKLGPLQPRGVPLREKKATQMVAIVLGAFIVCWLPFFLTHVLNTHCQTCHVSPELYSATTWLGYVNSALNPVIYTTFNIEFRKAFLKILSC

[22] = target: D(4) dopamine receptor (Homo sapiens) (UniProt P21917); experiment: Binding affinity to human dopamine D4 receptor at 1 uM
[23] = target: Muscarinic acetylcholine receptor M1 (Homo sapiens) (UniProt P11229); experiment: Binding affinity to human muscarinic M1 receptor at 10 uM
Muscarinic acetylcholine receptor M1 (Homo sapiens), sequence (P11229 whole entry): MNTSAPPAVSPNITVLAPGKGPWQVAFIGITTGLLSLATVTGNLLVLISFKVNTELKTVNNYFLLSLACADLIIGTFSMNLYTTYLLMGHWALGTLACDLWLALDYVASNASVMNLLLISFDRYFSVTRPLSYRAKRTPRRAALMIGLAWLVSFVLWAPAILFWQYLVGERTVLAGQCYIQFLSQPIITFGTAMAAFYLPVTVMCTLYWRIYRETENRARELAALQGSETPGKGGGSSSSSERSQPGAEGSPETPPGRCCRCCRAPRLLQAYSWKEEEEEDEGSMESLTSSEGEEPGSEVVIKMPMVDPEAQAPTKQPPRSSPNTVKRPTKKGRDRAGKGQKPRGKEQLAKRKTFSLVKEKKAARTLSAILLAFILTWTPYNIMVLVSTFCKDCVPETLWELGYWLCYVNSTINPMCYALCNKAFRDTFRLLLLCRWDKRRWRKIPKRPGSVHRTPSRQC

[24] = target: Muscarinic acetylcholine receptor M2 (Homo sapiens) (UniProt P08172); experiment: Binding affinity to human muscarinic M2 receptor
[25] = target: Muscarinic acetylcholine receptor M3 (Homo sapiens) (UniProt P20309); experiment: Binding affinity to human muscarinic M3 receptor at 10 uM
[26] = target: Sodium-dependent noradrenaline transporter (Homo sapiens) (UniProt P23975); experiment: Binding affinity to human NET
[27] = target: Sodium-dependent dopamine transporter (Homo sapiens) (UniProt Q01959); experiment: Binding affinity to human DAT
[28] = target: Sodium-dependent serotonin transporter (Homo sapiens) (UniProt P31645); experiment: Binding affinity to human SERT
Sodium-dependent serotonin transporter (Homo sapiens), sequence (P31645 whole entry, looked up): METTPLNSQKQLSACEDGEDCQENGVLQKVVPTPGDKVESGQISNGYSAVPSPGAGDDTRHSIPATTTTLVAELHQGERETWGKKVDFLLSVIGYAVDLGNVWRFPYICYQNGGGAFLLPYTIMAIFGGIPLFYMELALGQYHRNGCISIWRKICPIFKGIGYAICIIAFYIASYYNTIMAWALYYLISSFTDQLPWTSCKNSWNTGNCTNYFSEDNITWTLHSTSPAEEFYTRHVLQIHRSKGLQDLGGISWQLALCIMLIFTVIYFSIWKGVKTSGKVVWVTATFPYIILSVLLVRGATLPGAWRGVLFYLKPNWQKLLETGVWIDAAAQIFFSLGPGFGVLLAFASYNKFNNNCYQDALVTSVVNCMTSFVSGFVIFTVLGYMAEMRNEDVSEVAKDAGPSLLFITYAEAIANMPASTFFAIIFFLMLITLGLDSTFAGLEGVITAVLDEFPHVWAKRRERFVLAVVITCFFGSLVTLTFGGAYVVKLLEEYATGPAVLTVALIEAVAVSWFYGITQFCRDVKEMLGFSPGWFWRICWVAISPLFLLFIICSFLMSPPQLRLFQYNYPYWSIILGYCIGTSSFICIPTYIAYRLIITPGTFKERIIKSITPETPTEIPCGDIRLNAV

[29] = target: Histamine H1 receptor (Homo sapiens) (UniProt P35367); experiment: Binding affinity to human histamine H1 receptor 1 uM
Histamine H1 receptor (Homo sapiens), sequence (P35367 whole entry): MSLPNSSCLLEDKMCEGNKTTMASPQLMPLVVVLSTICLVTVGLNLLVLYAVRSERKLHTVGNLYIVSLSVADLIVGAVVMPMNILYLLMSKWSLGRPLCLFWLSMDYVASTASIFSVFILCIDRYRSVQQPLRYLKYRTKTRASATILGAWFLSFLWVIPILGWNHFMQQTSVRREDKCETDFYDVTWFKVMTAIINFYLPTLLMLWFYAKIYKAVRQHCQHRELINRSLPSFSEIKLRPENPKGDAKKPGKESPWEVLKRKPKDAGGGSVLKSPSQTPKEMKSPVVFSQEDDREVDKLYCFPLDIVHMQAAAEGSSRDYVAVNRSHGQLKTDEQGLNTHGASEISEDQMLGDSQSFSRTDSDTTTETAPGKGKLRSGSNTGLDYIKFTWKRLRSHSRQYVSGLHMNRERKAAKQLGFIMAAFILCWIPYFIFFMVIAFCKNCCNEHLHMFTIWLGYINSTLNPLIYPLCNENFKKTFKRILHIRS

[30] = target: Histamine H2 receptor (Homo sapiens) (UniProt P25021); experiment: Binding affinity to human histamine H2 receptor
Histamine H2 receptor (Homo sapiens), sequence (P25021 whole entry): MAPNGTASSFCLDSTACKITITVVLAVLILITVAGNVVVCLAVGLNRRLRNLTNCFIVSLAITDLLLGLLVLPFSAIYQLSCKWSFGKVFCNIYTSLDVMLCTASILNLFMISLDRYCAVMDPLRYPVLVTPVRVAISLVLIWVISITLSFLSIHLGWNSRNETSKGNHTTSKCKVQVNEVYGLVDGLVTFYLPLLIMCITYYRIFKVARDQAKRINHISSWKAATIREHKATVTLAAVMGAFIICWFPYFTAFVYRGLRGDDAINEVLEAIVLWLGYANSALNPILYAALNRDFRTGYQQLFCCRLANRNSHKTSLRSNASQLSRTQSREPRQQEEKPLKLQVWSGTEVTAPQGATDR

[31] = tested on: Plasma; experiment: Drug level in Wistar Kyoto rat plasma at 3 mg/kg, sc; type: ADME, organism-based; parameters: dose 3 mg/kg, route subcutaneous; details: in vivo
[32] = tested on: Brain; experiment: Drug level in Wistar Kyoto rat brain at 3 mg/kg, sc; type: ADME, organism-based; parameters: dose 3 mg/kg, route subcutaneous; details: in vivo
[33] = tested on: Cerebrospinal fluid; experiment: Drug level in Wistar Kyoto rat cerebro spinal fluid at 3 mg/kg, sc; type: ADME, organism-based; parameters: dose 3 mg/kg, route subcutaneous; details: in vivo
[34] = tested on: Plasma; experiment: Drug level in Wistar Kyoto rat plasma at 10 mg/kg, sc; type: ADME, organism-based; parameters: dose 10 mg/kg, route subcutaneous; details: in vivo
[35] = tested on: Brain; experiment: Drug level in Wistar Kyoto rat brain at 10 mg/kg, sc; type: ADME, organism-based; parameters: dose 10 mg/kg, route subcutaneous; details: in vivo
[36] = tested on: Cerebrospinal fluid; experiment: Drug level in Wistar Kyoto rat cerebro spinal fluid at 10 mg/kg, sc; type: ADME, organism-based; parameters: dose 10 mg/kg, route subcutaneous; details: in vivo
[37] = tested on: Plasma; experiment: Drug level in Wistar Kyoto rat plasma at 30 mg/kg, sc; type: ADME, organism-based; parameters: dose 30 mg/kg, route subcutaneous; details: in vivo
[38] = tested on: Brain; experiment: Drug level in Wistar Kyoto rat brain at 30 mg/kg, sc; type: ADME, organism-based; parameters: dose 30 mg/kg, route subcutaneous; details: in vivo
[39] = tested on: Cerebrospinal fluid; experiment: Drug level in Wistar Kyoto rat cerebro spinal fluid at 30 mg/kg, sc; type: ADME, organism-based; parameters: dose 30 mg/kg, route subcutaneous; details: in vivo

Compound: c1ccc(CN2CCN(CC3CCc4ccccc4O3)CC2)cc1 (configuration not stated)
Ki [1]: 19.6 nM
Ki [2]: 72.8 nM
Ki [3]: 146 nM
Ki [4]: 21.1 nM
Ki [5]: 180 nM
Ki [6]: 167 nM
Ratio Ki [7]: 4
Ratio Ki [8]: 7
Ratio Ki [9]: 9
Ratio Ki [10]: 8

Compound: c1ccc(CN2CCN(CC3COc4ccccc4C3)CC2)cc1 (configuration not stated)
Ki [1]: > 500 nM
Ki [2]: > 500 nM
Ki [3]: > 500 nM

Compound: O=C(NCCN1CCCN(CC2COc3ccccc3O2)CC1)c1cccnc1Oc1ccccc1 (configuration not stated)
Ki [1]: 5 nM
Ki [2]: 49 nM
Ki [3]: 220 nM
Ki [4]: 25 nM
Ki [5]: 132 nM
Ki [6]: 474 nM
Ratio Ki [7]: 10
Ratio Ki [8]: 44
Ratio Ki [9]: 5
Ratio Ki [10]: 19

Compound: c1ccc(Oc2ncccc2COCCN2CCCN(CC3COc4ccccc4O3)CC2)cc1 (configuration not stated)
Ki [1]: 2.5 nM
Ki [2]: 69.5 nM
Ki [3]: 66.1 nM
Ki [4]: 6.8 nM
Ki [5]: 132 nM
Ki [6]: 275 nM
Ratio Ki [7]: 28
Ratio Ki [8]: 26
Ratio Ki [9]: 19
Ratio Ki [10]: 41

Stronger by Ki [1], values ahead:

Ki [1]: 0.8 nM
Ki [2]: 10.5 nM
Ki [3]: 81 nM
Ki [4]: 4.8 nM
Ki [5]: 13.3 nM
Ki [6]: 73.6 nM
Ratio Ki [7]: 13
Ratio Ki [8]: 103
Ratio Ki [9]: 3
Ratio Ki [10]: 15
Compound: CCCCOc1ncccc1C(=O)NCCN1CCCN(CC2COc3ccccc3O2)CC1 (configuration not stated)

Ki [1]: 0.8 nM
Ki [2]: 36 nM
Ki [3]: 208 nM
Ki [4]: 1.9 nM
Ki [5]: 27.5 nM
Ki [6]: 501 nM
Ratio Ki [7]: 48
Ratio Ki [8]: 275
Ratio Ki [9]: 14
Ratio Ki [10]: 262
Compound: N#Cc1cccc(Oc2ncccc2C(=O)NCCN2CCCN(CC3COc4ccccc4O3)CC2)c1 (configuration not stated)

Ki [1]: 0.9 nM
Ki [2]: 14.3 nM
Ki [3]: 94.4 nM
Ki [4]: 1.9 nM
Ki [5]: 31.3 nM
Ki [6]: > 442 nM
Ratio Ki [7]: 16
Ratio Ki [8]: 106
Ratio Ki [9]: 16
Ratio Ki [10]: > 232
Activity [11]: 1.7 nM
Activity [12]: 177 nM
Activity [13]: 7.6 nM
Activity [14]: 59 nM
Activity [15]: 141 nM
Activity [16]: 44%
Activity [17]: 2400 nM
Activity [18]: 690 nM
Activity [19]: 530 nM
Activity [20]: 820 nM
Activity [21]: 75 nM
Activity [22]: 10%
Activity [23]: 4%
Activity [24]: 1600 nM
Activity [25]: 27%
Activity [26]: 1790 nM
Activity [27]: 3.48 µM
Activity [28]: 1480 nM
Activity [29]: 33%
Activity [30]: 1900 nM
Cp [31]: 744 ng/mL
Drug uptake [32]: 173 ngequiv/g
Drug uptake [33]: 7.39 ng/mL
Cp [34]: 2100 ng/mL
Drug uptake [35]: 630 ngequiv/g
Drug uptake [36]: 26.9 ng/mL
Cp [37]: 6190 ng/mL
Drug uptake [38]: 2230 ngequiv/g
Drug uptake [39]: 113 ng/mL
Compound: O=C(NCCN1CCCN(C[C@H]2COc3ccccc3O2)CC1)c1cccnc1Oc1ccccc1
